# Measured values as given in PubChem BioAssay (NCI).
# Several values for one entry are separate records, joined by “and”; a condition that tells them apart may be missing. Identical values can stand only once.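 Exposure lasted 48 hours, with cells grown in 96-well plates and compounds tested at five concentrations. At the GI50, growth is halved. The concentration for full growth arrest is given as TGI.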
# Tested on: K-562 leukemia
# Assay: NCI-60 cell line screen, 48 h
SMILES,TGI,GI50
O=C(CCc1nc(=S)[nH][nH]1)Nc1cc(Cl)c(Cl)cc1Cl,> 100 µM,
CN1CCCCC1CCN1c2ccccc2Sc2ccc(Cl)cc21 (configuration not stated),7.57 µM,2.6 µM
O=C(Nc1nc2ccc([N+](=O)[O-])cc2s1)C(=O)C(C1OC(=O)c2ccccc21)[N+](=O)[O-] (configuration not stated),> 100 µM,
O=C(CCc1nc(=S)[nH][nH]1)Nc1ccc(Cl)c(Cl)c1,> 100 µM,
COC(=O)C1(C(C)C)CCc2c(OC)ccc(OC)c2C1=O (configuration not stated),> 100 µM,
FC(F)(F)c1cccc(Nc2nc(-c3ccccc3)nc3ncccc23)c1,17.9 µM,3.17 µM
COC(=O)c1ccccc1NC(=O)C(=O)Cc1nc2c3c(ccc2[nH]c1=O)C(=O)c1ccccc1C3=O,> 100 µM,
Cc1ccc(S(=O)(=O)OC[C@@H]2CO2)cc1,> 100 µM,
COc1cc2cc(OC)c3cc4c(cc3c2c(OC)c1OC)OCO4,48 µM,
O=C(CC(=O)c1cccc2ccccc12)C(=O)Nc1ccc(Cl)cc1,> 100 µM,
C=CCO[C@H]1CO[C@H]2[C@@H]1OC[C@@H]2Oc1ccc(Nc2ccnc(Nc3ccc(O[C@H]4CO[C@H]5[C@@H]4OC[C@@H]5OCC=C)c(Cl)c3)n2)cc1Cl,1.9 µM,0.378 µM
CCCCCCCCCCCCCC(=O)OC(/C=C/C(C)C)C(O)C(O)C(OC)C(=O)NC1CCCCN(C)C1=O (configuration not stated),13.4 µM and > 49 µM,> 49 µM
CC1(C(=O)O)CCC[C@@]2(C)C1CC[C@@]1(C)c3cocc3CCC21 (some centres not stated),> 100 µM,
CCn1c(C)nn2c(=O)c3ccccc3nc2c1=O,> 100 µM,
CCOC(=O)CCC1(C(=O)OCC)CCCCC1=O (configuration not stated),> 100 µM,
CCN(CC)CCSc1c2ccccc2nc2cc(NCC(=O)Nc3ccccc3-c3ccccc3NC(=O)CNc3ccc4c(SCCN(CC)CC)c5ccccc5nc4c3)ccc12,> 73.5 µM,
Cc1nc2c(ccc3ncccc32)[nH]1,> 100 µM,
O=C(CCNC12CC3CC(CC(C3)C1)C2)c1ccccc1,36.5 µM,

SMILES,TGI,GI50
Cc1cc(N(CCC#N)CCC#N)ccc1N=Nc1ccc(S(N)(=O)=O)cc1,> 100 µM,
CC(=O)[CH-]C(=O)c1ccccc1.CC(=O)[CH-]C(=O)c1ccccc1.CN(C)c1ccc([O-])cc1.CN(C)c1ccc([O-])cc1.Cl.[Ti+4],> 31.6 µM,9.89 µM
CC1(C)C(=O)/C=C\C(=O)C(C)(C)C2=CC=C(O2)C(C)(C)C(=O)/C=C\C(=O)C(C)(C)C2=CC=C1O2,> 100 µM,
NC(=O)NO.O.O.O.O.O.O.O.O.O.O.O.[Ge].[Ge].[Ge].[Ge].[Ge].[O]=[Ge].[O]=[Ge].[O]=[Ge].[O]=[Ge].[O]=[Ge][OH],> 100 µM,
CN(C)C(=S)N=C(Nc1ccccc1)Nc1ccccc1,> 100 µM,
COC(=O)CC[N+]1=CCC(c2ccccc2)(c2ccccc2)O1,> 100 µM,
CCC[CH2][Sn]([CH2]CCC)([S]c1cccc2cccnc12)[S]c1cccc2cccnc12,0.611 µM,0.0642 µM
OCC1=CC(NC2CC(CO)C(O)C(O)C2O)C(O)C(O)C1O (configuration not stated),> 100 µM,
Nc1ccccc1S(=O)(=O)N(CC(=O)O)c1ccccc1,> 100 µM,
CCOC(=O)C(C)(C)Oc1ccc2c(-c3ccccc3)cc(=O)oc2c1,> 100 µM,
CNS(=O)(=O)NNS(=O)(=O)c1ccccc1,> 100 µM,
Cc1cc(NS(=O)(=O)c2ccc(Nc3c4ccccc4nc4c(C(=O)N5CCN(CCOS(C)(=O)=O)CC5)cccc34)cc2)no1,> 100 µM,
O=C(O)CCC(NC(=O)c1ccc(Nc2nc3ccccc3nc2-c2cccs2)cc1)C(=O)O (configuration not stated),> 100 µM,
NC1=NCCC1(c1ccccc1)c1ccccn1 (configuration not stated),> 100 µM,
CC1CCc2nc[nH]c(=O)c21 (configuration not stated),> 100 µM,> 100 µM
CNC(=S)OCCC(C)CCCC(C)C (configuration not stated),30.9 µM,
COC(=O)/C(C#N)=C1\NC(=O)c2ccccc21,> 100 µM,

# Tested on: SNB-75 CNS
# Assay: NCI-60 cell line screen, 48 h
SMILES,TGI,GI50
Cc1c(C(=O)C/C(=N/NC(=O)c2ccccc2O)C(=O)Nc2ccccc2C(C)C)[n+](=O)c2ccccc2n1[O-],> 100 µM,
CCCCCCCCCCCC(=O)OCCOCCOCCOCCOCCOCc1ccccc1,> 100 µM,
CCCC1C(=O)CCc2c(OC)ccc(OC)c21 (configuration not stated),> 100 µM,
O=C(CCc1nc(=S)[nH][nH]1)Nc1cc(Cl)c(Cl)cc1Cl,> 100 µM,
CN1CCCCC1CCN1c2ccccc2Sc2ccc(Cl)cc21 (configuration not stated),6.19 µM,1.54 µM
O=C(Nc1nc2ccc([N+](=O)[O-])cc2s1)C(=O)C(C1OC(=O)c2ccccc21)[N+](=O)[O-] (configuration not stated),> 100 µM,
O=C(CCc1nc(=S)[nH][nH]1)Nc1ccc(Cl)c(Cl)c1,75.5 µM,
FC(F)(F)c1cccc(Nc2nc(-c3ccccc3)nc3ncccc23)c1,31.3 µM,7.85 µM
